Patent US20230233425A1, “USE OF VOLATILE COMPOSITIONS TO LIMIT OR ELIMINATE THE PERCEPTION OF MALODOR” (Firmenich SA, priority 2017, published 2023)
Values joined by “and” are separate entries in the source; they are usually repeats but may differ in a detail not shown here. Identical values can stand only once. Like-named read-outs stand apart in the source and are kept apart here. Marks after values point to notes of the source that are not given here.

Legend:
[1] = tested on: 1-octen-3-ol mushroom/earthy/fungal odor perception; test: Human sensory performance of test compounds with and without 1-octen-3-ol; format: in vivo; settings: for % Mushroom/Earthy/Fungal Odor: Test Compound Only
[2] = tested on: geonol malodor (earthy/moss odor) perception; test: Sensory evaluation of geonol earthy/moss odor in iso-intense binary mixtures (glass jars); format: in vivo, human; settings: iso-intense binary mixture
Source text: Sensory Evaluation: Five 16 oz glass jars containing either REF (geonol only), geonol only control, antagonist only, mixture of geonol and isointense antagonist, or mixture of geonol and low intensity antagonist were presented to the panelists (last four samples were randomized across panelists). The panelists were asked to familiarize themselves with the earthy/moss odor quality from the REF jar first, then rate the pleasantness, earthy/moss odor intensity and overall odor intensity of the next four samples on a 0-10 linear scale. The inter-stimulus interval between the samples was two minutes to avoid adaptation.

[3] = tested on: OR11A1, or the OR2M3 olfactory receptor; test: Geonol olfactory receptor antagonist cell-based screening, inhibitory dose-response vs geonol EC80; design: species or system human; settings: geonol at EC80; for IC50: read-out: IC50
[4] = tested on: geonol earthy/moss odor perception; test: Human sensory performance of test compounds with and without geonol; format: in vivo; settings: for % Earthy/Moss Odor: Test Compound Only
Procedure, shortened: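 Panelists first learned the earthy/moss quality from a geonol-only reference, then rated pleasantness, earthy/moss intensity and overall intensity of geonol alone, antagonist alone, and geonol mixed with isointense or low-intensity antagonist on a 0-10 linear scale. Samples were presented in glass jars in randomized order with two-minute intervals.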

[5] = tested on: OR2W1 or the OR1A1 olfactory receptor; test: 1-octen-3-ol olfactory receptor antagonist cell-based dose-response vs 1-octen-3-ol EC80
Source text: Each cell line was screened with a volatile compound library for their inhibitory properties and potential 1-octen-3-ol smell inhibition.
Single concentration monitoring of the 1-octen-3-ol induced cell activity in the presence or absence of a test compound allowed for the identification of compounds with a putative suppression or inhibitory effect.

[6] = target: T1, Olfr749 (Mus musculus, UniProt E9Q438); test: Indole antagonist dose-response, cAMP HTRF in HEK293T, vs indole EC80; format: cell-based; settings: Table 23
T1 construct: Flag; Rho tag; expressed in transfected cells
T1 sequence (E9Q438 1-313): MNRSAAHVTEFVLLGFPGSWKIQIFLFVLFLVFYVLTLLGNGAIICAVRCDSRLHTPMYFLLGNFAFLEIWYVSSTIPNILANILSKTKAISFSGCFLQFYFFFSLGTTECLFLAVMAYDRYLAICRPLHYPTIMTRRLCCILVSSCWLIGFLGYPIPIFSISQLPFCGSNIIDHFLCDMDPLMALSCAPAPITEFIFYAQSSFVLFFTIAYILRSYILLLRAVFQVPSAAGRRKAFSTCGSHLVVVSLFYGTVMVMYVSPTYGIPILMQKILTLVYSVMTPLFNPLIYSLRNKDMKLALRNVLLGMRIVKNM
Experimental: (§1) Functional dose-response experiments were performed to identify compounds capable of antagonizing indole-sensitive receptors previously identified (U.S. Pat. No. 9,914,760 B2). Using a cell-based assay, mouse receptor Olfr738, Olfr739, Olfr740, Olfr741, 0fr742, Olfr743, Olfr744, Olfr746, Olfr748 and Olfr749 were tested in an HEK293T cell line wherein the endogenous RTP1 gene has been activated and the odorant receptor chaperone was expressed (described in WO2016201153A1). The receptor genes were tagged with a Flag-Rho tag combination. Receptor genes were co-transfected with the canonical olfactory human G-protein alpha subunit Golf gene. Co-expression of the human Golf activates the Gs transduction pathway that leads to an internal cAMP increase upon binding to the appropriate ligand (indole here). Odorant-induced activity was detected by measuring the cAMP increase in the cytosol using an HTRF based kit (CisBio, cAMP dynamic 2 kit, cat. 62AM4PEJ). The receptors were exposed to binary mixtures of increasing concentrations of the test compounds in the presence of a potent activation concentration of indole (EC80) for each receptor. […] All the compounds listed decreased the indole induced activity of at least one receptor.

[7] = target: Olfr743 (Mus musculus, UniProt L7N1Y2); test: as above; format: cell-based; settings: Table 23
Chain of Olfr743 (L7N1Y2 entry or part of it): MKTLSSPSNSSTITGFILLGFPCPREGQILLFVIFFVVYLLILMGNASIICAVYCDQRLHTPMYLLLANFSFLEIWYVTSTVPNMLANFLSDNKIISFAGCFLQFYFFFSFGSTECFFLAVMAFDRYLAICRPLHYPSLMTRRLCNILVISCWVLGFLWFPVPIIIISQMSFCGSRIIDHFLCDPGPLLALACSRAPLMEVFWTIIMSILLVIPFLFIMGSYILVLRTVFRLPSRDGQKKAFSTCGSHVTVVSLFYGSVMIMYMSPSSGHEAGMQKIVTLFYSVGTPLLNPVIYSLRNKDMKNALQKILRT
Experimental: as §1

[8] = target: T2, Olfr744 (Mus musculus, UniProt Q7TRM0); test: as above; format: cell-based; settings: Table 23
T2 construct: Flag; Rho tag; expressed in transfected cells
T2 sequence (Q7TRM0 1-323): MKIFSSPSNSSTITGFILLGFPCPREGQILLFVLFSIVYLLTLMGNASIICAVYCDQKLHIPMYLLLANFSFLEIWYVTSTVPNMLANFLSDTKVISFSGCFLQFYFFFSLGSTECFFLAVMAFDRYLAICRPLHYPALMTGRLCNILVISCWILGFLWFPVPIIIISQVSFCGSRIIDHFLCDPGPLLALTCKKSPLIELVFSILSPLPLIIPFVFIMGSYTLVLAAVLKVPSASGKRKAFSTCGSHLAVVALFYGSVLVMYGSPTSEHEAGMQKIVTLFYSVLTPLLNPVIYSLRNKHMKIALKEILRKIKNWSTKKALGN
Experimental: as §1

[9] = target: 1-octen-3-ol receptors OR2W1, Olfr93, Olfr120, Olfr398; test: Antagonists of 1-octen-3-ol receptors (Example 11); format: cell-based, mouse and human; design: Inhibition(%): concentration or dose not given beside the values; settings: Table 19
[10] = target: Olfr739 (Mus musculus, UniProt E9Q1P0); test: Indole antagonist dose-response, cAMP HTRF in HEK293T, vs indole EC80; format: cell-based
Chain of Olfr739 (E9Q1P0 entry or part of it): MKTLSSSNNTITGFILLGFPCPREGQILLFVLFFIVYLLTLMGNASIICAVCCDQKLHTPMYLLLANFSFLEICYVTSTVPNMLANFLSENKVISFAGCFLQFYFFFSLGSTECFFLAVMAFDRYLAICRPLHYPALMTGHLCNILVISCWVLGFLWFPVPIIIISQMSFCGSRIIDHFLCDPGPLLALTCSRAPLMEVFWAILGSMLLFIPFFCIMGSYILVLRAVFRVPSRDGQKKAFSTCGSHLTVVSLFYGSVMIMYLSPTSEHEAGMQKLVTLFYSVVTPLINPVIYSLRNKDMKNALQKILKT
Experimental: as §1

[11] = target: Olfr742 (Mus musculus, UniProt A2RTP5); test: as above; format: cell-based; settings: vs indole EC80; for IC50: read-out: Olfr742 IC50; for Emax: HEK-293T, read-out: Olfr742 % Inhibition
Chain of Olfr742 (A2RTP5 entry or part of it): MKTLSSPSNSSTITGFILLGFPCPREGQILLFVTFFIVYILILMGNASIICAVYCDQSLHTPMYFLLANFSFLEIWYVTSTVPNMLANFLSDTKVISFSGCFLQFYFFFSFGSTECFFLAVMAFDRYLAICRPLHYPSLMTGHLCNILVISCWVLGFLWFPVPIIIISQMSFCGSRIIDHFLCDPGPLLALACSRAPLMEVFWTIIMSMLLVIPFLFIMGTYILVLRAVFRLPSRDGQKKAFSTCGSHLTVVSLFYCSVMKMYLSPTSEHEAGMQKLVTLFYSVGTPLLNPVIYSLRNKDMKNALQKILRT
Experimental: (§2) Using a cell-based assay, mouse receptor Olfr738, Olfr739, Olfr740, Olfr741, 0fr742, Olfr743, Olfr744, Olfr746, Olfr748 and Olfr749 were tested in an HEK293T cell line wherein the endogenous RTP1 gene has been activated and the odorant receptor chaperone was expressed (described in WO2016201153A1). The receptor genes were tagged with a Flag-Rho tag combination. Receptor genes were co-transfected with the canonical olfactory human G-protein alpha subunit Golf gene. Co-expression of the human Golf activates the Gs transduction pathway that leads to an internal cAMP increase upon binding to the appropriate ligand (indole here). Odorant-induced activity was detected by measuring the cAMP increase in the cytosol using an HTRF based kit (CisBio, cAMP dynamic 2 kit, cat. 62AM4PEJ).

[12] = target: Olfr740 (Mus musculus, UniProt E9PV79); test: as above; format: cell-based; settings: vs indole EC80; for IC50: read-out: Olfr740 IC50; for Emax: HEK-293T, read-out: Olfr740 % Inhibition
Chain of Olfr740 (E9PV79 entry or part of it): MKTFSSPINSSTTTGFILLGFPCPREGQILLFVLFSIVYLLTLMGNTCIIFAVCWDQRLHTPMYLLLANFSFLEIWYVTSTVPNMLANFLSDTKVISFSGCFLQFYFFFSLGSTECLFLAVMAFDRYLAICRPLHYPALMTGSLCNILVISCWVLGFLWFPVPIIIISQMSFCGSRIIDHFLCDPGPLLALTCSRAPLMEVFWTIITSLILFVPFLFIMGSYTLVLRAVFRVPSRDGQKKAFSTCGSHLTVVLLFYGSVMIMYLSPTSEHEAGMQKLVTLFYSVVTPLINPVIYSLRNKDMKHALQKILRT
Experimental: as §2

[13] = target: Olfr738 (Mus musculus, UniProt L7N1X7); test: as above; format: cell-based; settings: vs indole EC80; for IC50: read-out: Olfr738 IC50
Chain of Olfr738 (L7N1X7 entry or part of it): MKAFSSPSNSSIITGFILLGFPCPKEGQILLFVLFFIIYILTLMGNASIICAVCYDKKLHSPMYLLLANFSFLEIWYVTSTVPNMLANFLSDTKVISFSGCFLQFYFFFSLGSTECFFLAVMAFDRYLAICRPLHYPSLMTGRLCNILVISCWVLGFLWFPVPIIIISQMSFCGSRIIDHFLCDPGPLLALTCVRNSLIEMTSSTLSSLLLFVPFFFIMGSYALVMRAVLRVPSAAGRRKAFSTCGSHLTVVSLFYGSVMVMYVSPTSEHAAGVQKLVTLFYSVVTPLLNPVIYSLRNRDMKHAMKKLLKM
Experimental: as §2

[14] = target: Olfr741 (Mus musculus, UniProt L7N1Y5); test: as above; format: cell-based
Chain of Olfr741 (L7N1Y5 entry or part of it): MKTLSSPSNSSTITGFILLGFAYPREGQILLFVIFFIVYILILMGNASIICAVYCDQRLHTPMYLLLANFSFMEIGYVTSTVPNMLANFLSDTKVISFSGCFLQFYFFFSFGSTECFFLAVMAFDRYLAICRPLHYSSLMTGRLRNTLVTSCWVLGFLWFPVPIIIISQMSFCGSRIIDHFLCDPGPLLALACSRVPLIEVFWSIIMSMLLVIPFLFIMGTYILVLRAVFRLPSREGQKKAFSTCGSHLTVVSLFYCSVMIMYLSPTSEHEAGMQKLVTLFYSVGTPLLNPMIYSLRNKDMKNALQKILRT
Experimental: as §2

[15] = target: T3, OR51E1 olfactory receptor (Homo sapiens, UniProt Q8TCB6); test: Butyric acid olfactory receptor antagonist cell-based dose-response vs butyric acid EC80; settings: butyric acid at EC80; Table 5
T3 construct: expressed in transfected cells
T3 sequence (Q8TCB6 1-318): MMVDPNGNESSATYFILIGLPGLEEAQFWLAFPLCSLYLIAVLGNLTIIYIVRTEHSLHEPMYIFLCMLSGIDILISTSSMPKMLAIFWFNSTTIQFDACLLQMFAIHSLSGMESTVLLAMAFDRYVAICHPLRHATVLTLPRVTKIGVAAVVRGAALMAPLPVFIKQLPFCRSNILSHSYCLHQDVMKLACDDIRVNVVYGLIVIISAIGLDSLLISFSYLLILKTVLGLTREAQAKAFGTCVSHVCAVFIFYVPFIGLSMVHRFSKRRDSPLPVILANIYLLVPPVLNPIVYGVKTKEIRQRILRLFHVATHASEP

[16] = Low Dilution Test Compound + 1-octen-3-ol (0.15%)
[17] = Medium Dilution Test Compound + 1-octen-3-ol (0.15%)
[18] = Low Dilution Test Compound + Geonol (0.1%)
[19] = Medium Dilution Test Compound + Geonol (0.1%)
[20] = Table 22, second listing of the same compounds
[21] = Table 22, first listing (r7-r45)

1,4,8-trimethyl-13-oxabicyclo[10.1.0]trideca-4,8-diene; 1,5,8-trimethyl-13-oxabicyclo[10.1.0]trideca-4,8-diene
% Mushroom/Earthy/Fungal Odor Remaining [1, 16]: 93.80%
% Mushroom/Earthy/Fungal Odor Remaining [1, 17]: 79.50%
% Mushroom/Earthy/Fungal Odor [1]: 30.20%
% Remaining in human sensory tests [2]: 85%
% Inhibition [3]: 50%
IC50 [3]: 81 µM
% Earthy/Moss Odor Remaining [4, 18]: 92.00%
% Earthy/Moss Odor Remaining [4, 19]: 91.50%
% Earthy/Moss Odor [4]: 43.30%
IC50 ([5]; 1-octen-3-ol at EC80): 266 µM
% Inhibition ([5]; maximum inhibition normalized to baseline agonist activity): 70.92%

4-(2,6,6-trimethylcyclohexen-1-yl)but-3-en-2-one; 4-(2,6,6-trimethylcyclohex-2-en-1-yl)but-3-en-2-one
IC50 [6]: 75.8 µM and 76 µM
IC50 [7]: 275 µM and 159 µM
Olfr743 % Inhibition [7]: 114.78% and 112.64%
IC50 [8]: 125 µM and 159 µM
Olfr744 % Inhibition [8]: 78.23% and 77.99%
% Mushroom/Earthy/Fungal Odor Remaining [1, 16]: 94.80%
% Mushroom/Earthy/Fungal Odor Remaining [1, 17]: 73.90%
% Mushroom/Earthy/Fungal Odor [1]: 20.30%
% Remaining in human sensory tests [2]: 59* %
% Earthy/Moss Odor Remaining [4, 18]: 73.40%
% Earthy/Moss Odor Remaining [4, 19]: 70.30%
% Earthy/Moss Odor [4]: 27.10%
IC50 [9]: 146 µM
Inhibition(%) [9]: 79%

6(8)-ISOPROPYLQUINOLINE [isopropyl quinoline]
IC50 ([10]; Table 22, first listing): 61.3 µM
Olfr739 % Inhibition ([10]; Table 22, first listing): 74.96%
Olfr739 % Inhibition [10, 20]: 116.59%
IC50 [7]: 119 µM
Olfr743 % Inhibition [7]: 39.62%
IC50 [8]: 102 µM
Olfr744 % Inhibition [8]: 116.59%
Olfr742 % Inhibition ([11]; Table 22, first listing): 72.34%
IC50 ([11]; Table 22, first listing): 86.6 µM
Olfr740 % Inhibition ([12]; Table 22, first listing): 148.06%
IC50 ([12]; Table 22, first listing): 40.9 µM
Olfr738 % Inhibition ([13]; Table 22, first listing): 20.66%
IC50 ([13]; Table 22, first listing): 120 µM
Olfr738 % Inhibition [13, 20]: 39.62%
IC50 ([14]; Table 22, first listing): 91.6 µM
Olfr741 % Inhibition ([14]; Table 22, first listing): 54.55%
% Remaining in human sensory tests [2]: 110%
IC50 [3]: 400 µM
% Earthy/Moss Odor Remaining [4, 18]: 99.60%
% Earthy/Moss Odor Remaining [4, 19]: 104.70%
% Earthy/Moss Odor [4]: 54.70%

CC1(C)CCCC2(C)CC(=O)CCC12 (racemic)
Olfr739 % Inhibition [10, 20]: 107.89%
Emax [11, 20]: 97%
Emax [12, 20]: 81.4%
Olfr738 % Inhibition [13, 20]: 123.10%
IC50 [14, 20]: 106 µM
Olfr741 % Inhibition [14, 20]: 65.60%

C/C=C/C(=O)C1C(C)=CCCC1(C)C (racemic) [(+−)-(2E)-1-(2,6,6-trimethyl-2-cyclohexen-1-yl)-2-buten-1-one]
IC50 [6]: 156 µM
Olfr749 % Inhibition [6]: 47.86%
IC50 [15]: 50.5 µM
Emax ([11]; Table 22, first listing): 113%
Emax [11, 20]: 47.9%
IC50 [11, 21]: 95.4 µM
Emax ([12]; Table 22, first listing): 115%
IC50 [12, 21]: 137 µM
IC50 [13, 21]: 99.8 µM
Olfr738 % Inhibition ([13]; Table 22, first listing): 12.19%
IC50 ([14]; Table 22, first listing): 110 µM
Olfr741 % Inhibition ([14]; Table 22, first listing): 75.65%

CC(C)(C)C1CCC(=O)CC1 [4-t-butylcyclohexanone]
Olfr739 % Inhibition ([10]; Table 22, first listing): 60.32%
IC50 [10, 21]: 69.9 µM
Olfr739 % Inhibition [10, 20]: 148.19%
IC50 [8]: 175 µM
Olfr744 % Inhibition [8]: 148.19%
Emax ([12]; Table 22, first listing): 213%
IC50 [12, 21]: 10.6 µM
IC50 [13, 21]: 43.1 µM
Olfr738 % Inhibition ([13]; Table 22, first listing): 52.44%

O=C1CCC=CCCCCCCCCCC1 [cyclopentadec-4-en-1-one]
% Mushroom/Earthy/Fungal Odor [1]: 25.80%
% Remaining in human sensory tests [2]: 47%
% Inhibition [3]: 45%
IC50 [3]: 61 µM
% Earthy/Moss Odor [4]: 49.90%
IC50 [9]: 57.8 µM
Inhibition(%) [9]: 130%
